The target in one experiment is T1, TRPV1 receptors (Mus musculus, UniProt Q704Y3).
T1 construct: from tissue; host or cells: cornea of the living mouse (C-fibre innervation)
Briefly: Mouse cornea irritation test (capsaicin-induced eye rubbing). In kind it is in vivo. As to conditions: compound 500 μM, 2 μl local application to the cornea 10 minutes before 2 μl of 160 μM capsaicin, rubbings counted for 2 minutes. Here is the method: Mouse Cornea Irritation Test
The irritant nature of capsaicin is easily appreciated at the level of the cornea since this organ is one of the most innervated with the C-fibres. In this context, according to preliminary experiments, the application of a very small amount of capsaicin (2 μl at a concentration of 160 μM) to the surface of the cornea of an animal leads to a certain number of stereotypical behaviors associated with irritation, which are easily listed. These include: blinking, rubbing of the instilled eye by the ipsilateral forepaw, rubbing of the face with both forepaws, scratching of the ipsilateral face by the hindpaw. […] Moreover, its appearance is also normal. […] It can be concluded that the duration of action of capsaicin at these doses is less than 2 minutes.
SUMMARY OF THE METHODOLOGY
The principle of the series of tests is to determine whether the compounds of the invention can influence the behavioral response induced by a specified amount of capsaicin. The capsaicin is initially diluted to 25 mM in DMSO and diluted, for final use, in physiological serum with Tween 80 at 10%. It appears, from control studies, that in these conditions the solvent has no effect.
In practice, the test product, prepared at 25 mM in DMSO and diluted for final use in physiological serum with 10% of Tween 80 at the strongest concentration of 500 μM, is administered by local application to the surface of the cornea at a volume of 2 μl, 10 minutes before application of the capsaicin. The animal receives an ocular instillation of 2 μl of a 160 μM capsaicin solution prepared as stated above. For an observation period of 2 minutes following instillation, the number of times the instilled eye is rubbed by the ipsilateral forepaw is counted for each animal.
For a given group, the percentage protection is calculated as follows: P=100−((average number of scratchings of the group treated with the compound/average number of scratchings of the group treated with the solvent)×100)
This percentage protection is averaged for each group of animals (n=number of animals tested with the compound of the invention).

A further experiment concerns the target T2, TRPV1 receptor (Rattus norvegicus, UniProt O35433).
T2 construct: The neurons of the DRG express the TRPV1 receptor naturally; endogenous in cells; host or cells: primary culture of neonatal rat dorsal root ganglion neurons
Briefly: Test of inhibition of the current induced by capsaicin on the rat DRG (whole-cell patch-clamp). In kind it is cell-based. The conditions noted are these: inhibition of the capsaicin control response, primary culture of neonate rat DRG neurons. The method, then:
Test of Inhibition of the Current Induced by Capsaicin on the Rat DRG
Primary Culture of Rat Dorsal Root Ganglion (DRG) Cells:
The neurons of the DRG express the TRPV1 receptor naturally.
Primary cultures of DRG of neonate rats are prepared from 1-day-old rats. Briefly, after dissection, the ganglia are trypsinized and the cells are dissociated mechanically by careful trituration. The cells are resuspended in Eagle's basic culture medium containing 10% of fetal calf serum, 25 mM KCl, 2 mM glutamine, 100 μg/ml gentamicin and 50 ng/ml of NGF, then deposited on glass slides covered with laminin (0.25×10^6 cells per slide), which are then placed in Corning 12-well plates. The cells are incubated at 37° C. in a humidified atmosphere containing 5% CO2 and 95% air. Cytosine β-D-arabinoside (1 μM) is added 48 h after culture set-up, to prevent the development of non-neuronal cells. The slides are transferred to the test chambers for patch-clamp investigations after 7-10 days in culture.
The measuring chambers (volume 800 μl) containing the cellular preparation are placed on the stage of an inverted microscope (Olympus IMT2) fitted with Hoffman optics (Modulation Contrast, New York) and are observed at magnification of 400×. The chambers are continually perfused by gravity (2.5 ml/min) by means of a solution distributor accepting 8 inlets and whose single outlet, comprising a polyethylene tube (inside diameter 500 μm) is positioned at less than 3 mm from the cell under investigation. […] The total currents (membrane potential fixed at −60 mV) were recorded with an Axopatch 1D amplifier (Axon Instruments, Foster City, Calif.), connected to a PC controlled by Pclamp8 software (Axon Instrument). The current traces are recorded on paper and simultaneously digitized (sampling frequency […]) and saved to the hard disk of the PC.
The application of a micromolar solution of capsaicin induces a cationic input current on the DRG cells (voltage fixed at −70 mV). […] The results are expressed as percentage inhibition of the capsaicin control response.
Background: In patch-clamp work, channel activity is measured electrically.

T2 sequence (O35433 whole entry): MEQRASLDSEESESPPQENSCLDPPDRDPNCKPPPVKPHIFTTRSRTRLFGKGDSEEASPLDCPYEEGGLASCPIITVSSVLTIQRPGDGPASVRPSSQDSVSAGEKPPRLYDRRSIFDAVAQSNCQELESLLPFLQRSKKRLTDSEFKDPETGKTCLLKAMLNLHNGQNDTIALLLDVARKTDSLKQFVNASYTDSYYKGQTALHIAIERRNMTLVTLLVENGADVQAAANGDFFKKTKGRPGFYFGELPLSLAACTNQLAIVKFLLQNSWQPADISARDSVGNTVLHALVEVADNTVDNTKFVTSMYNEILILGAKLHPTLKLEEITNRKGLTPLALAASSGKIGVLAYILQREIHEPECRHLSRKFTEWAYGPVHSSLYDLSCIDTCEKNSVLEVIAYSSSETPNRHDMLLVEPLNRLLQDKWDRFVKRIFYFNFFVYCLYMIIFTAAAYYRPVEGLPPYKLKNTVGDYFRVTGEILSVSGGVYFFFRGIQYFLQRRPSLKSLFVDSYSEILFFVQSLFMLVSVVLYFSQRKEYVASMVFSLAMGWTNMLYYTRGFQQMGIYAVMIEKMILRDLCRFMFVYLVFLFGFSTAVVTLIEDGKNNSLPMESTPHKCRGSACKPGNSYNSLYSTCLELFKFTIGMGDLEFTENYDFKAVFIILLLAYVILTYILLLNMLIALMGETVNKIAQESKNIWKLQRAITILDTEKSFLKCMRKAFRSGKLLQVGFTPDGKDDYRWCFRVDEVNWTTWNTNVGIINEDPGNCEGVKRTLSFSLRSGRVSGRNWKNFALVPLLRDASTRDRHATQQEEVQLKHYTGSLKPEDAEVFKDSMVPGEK
T1 sequence (Q704Y3 whole entry): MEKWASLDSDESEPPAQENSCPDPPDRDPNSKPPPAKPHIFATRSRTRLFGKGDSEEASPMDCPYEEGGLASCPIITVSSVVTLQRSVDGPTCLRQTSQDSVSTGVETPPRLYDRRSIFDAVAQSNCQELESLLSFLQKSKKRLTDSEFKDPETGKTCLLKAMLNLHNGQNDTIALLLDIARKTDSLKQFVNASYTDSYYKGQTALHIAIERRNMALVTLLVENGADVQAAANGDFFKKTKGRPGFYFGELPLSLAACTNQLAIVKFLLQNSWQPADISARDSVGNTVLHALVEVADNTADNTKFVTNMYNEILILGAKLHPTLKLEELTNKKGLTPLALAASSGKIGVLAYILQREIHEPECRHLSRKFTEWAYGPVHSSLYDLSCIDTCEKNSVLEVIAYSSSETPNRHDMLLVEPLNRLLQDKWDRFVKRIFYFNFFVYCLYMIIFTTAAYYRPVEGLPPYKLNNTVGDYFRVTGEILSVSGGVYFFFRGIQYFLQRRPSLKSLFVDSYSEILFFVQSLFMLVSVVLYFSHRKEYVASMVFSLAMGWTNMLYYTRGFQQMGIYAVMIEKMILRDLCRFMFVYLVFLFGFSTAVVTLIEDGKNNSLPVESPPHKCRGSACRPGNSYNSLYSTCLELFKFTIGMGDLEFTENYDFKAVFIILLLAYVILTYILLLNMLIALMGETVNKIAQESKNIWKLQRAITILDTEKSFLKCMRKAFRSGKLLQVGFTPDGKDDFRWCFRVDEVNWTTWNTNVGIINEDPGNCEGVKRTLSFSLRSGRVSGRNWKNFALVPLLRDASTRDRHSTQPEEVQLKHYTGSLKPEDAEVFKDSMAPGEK

Take `CNc1ccc(NC(=O)c2cc3cc(C(F)(F)F)cnc3n2Cc2cccc(F)c2)cn1` [Compound 1, N-[(6-Methylamino)pyridin-3-yl]-5-trifluoromethyl-1-(3-fluorobenzyl)-1H-pyrrolo[2,3-b]pyridine-2-carboxamide]: the “% P 500 μM (percentage protection)” value on TRPV1 receptors came out at 51%. Still for that read-out and setting: next, `Cc1cc(N(C)C)ncc1NC(=O)c1cc2cc(C(F)(F)F)cnc2n1Cc1cccc(F)c1.Cl` [Compound 3, N-(6-N,N-Dimethylamino-4-methyl-pyridin-3-yl)-5-trifluoromethyl-1-(3-fluorobenzyl)-1H-pyrrolo[2,3-b]pyridine-2-carboxamide hydrochloride (1:1)]: 34%. For `CN(C)c1ncc(NC(=O)c2cc3cc(C(F)(F)F)cnc3n2Cc2cccc(F)c2)cc1C(F)(F)F.Cl` [Compound 4, N-(6-N,N-Dimethylamino-5-trifluoromethyl-pyridin-3-yl)-5-trifluoromethyl-1-(3-fluorobenzyl)-1H-pyrrolo[2,3-b]pyridine-2-carboxamide hydrochloride (1:1)], the “Percentage inhibition in patch DRG” value at TRPV1 receptor (compound at 1 nM) was 98% (1 nM). For `O=C(Nc1ccc(N2CCCC2)nc1)c1cc2cc(C(F)(F)F)cnc2n1Cc1cccc(F)c1` [Compound 6, N-[6-(Pyrrolidin-1-yl)pyridin-3-yl]-5-trifluoromethyl-1-(3-fluorobenzyl)-1H-pyrrolo[2,3-b]pyridine-2-carboxamide], at TRPV1 receptor (DRG neuron, compound at 1 nM, read-out: Percentage inhibition in patch DRG), the inhibition at 0.001 µM worked out at 71%. Moreover, the “% P 500 μM (percentage protection)” value at TRPV1 receptors worked out at 30%.

In the case of `O=C(Nc1ccc(N2CCCC2)nc1)c1cc2cc(C(F)(F)F)cnc2n1Cc1ccncc1` [Compound 9, N-[6-(Pyrrolidin-1-yl)pyridin-3-yl]-5-trifluoromethyl-1-[(4-pyridyl)methyl]-1H-pyrrolo[2,3-b]pyridine-2-carboxamide], the “% P 500 μM (percentage protection)” value on TRPV1 receptors is 43%. On the same count and under the same terms, next, `O=C(Nc1ccc(N2CCC(F)(F)C2)nc1)c1cc2cc(C(F)(F)F)cnc2n1Cc1cccc(F)c1` [Compound 12, N-[6-(3,3-difluoropyrrolidin-1-yl)pyridin-3-yl]-5-trifluoromethyl-1-(3-fluorobenzyl)-1H-pyrrolo[2,3-b]pyridine-2-carboxamide]: 83%. Take `O=C(Nc1ccc(N2CCC2)nc1)c1cc2cc(C(F)(F)F)cnc2n1Cc1cccc(F)c1` [Compound 15, N-[6-(Azetidin-1-yl)pyridin-3-yl]-5-trifluoromethyl-1-(3-fluorobenzyl)-1H-pyrrolo[2,3-b]pyridine-2-carboxamide]: the inhibition at 0.01 µM on TRPV1 receptor (DRG neuron, compound at 10 nM, read-out: Percentage inhibition in patch DRG) came out at 100%.

The inhibition is the drop in the measured response relative to a control, in per cent.
